Laboratory results: US10370372B2, “Fused pyrimidine compound or salt thereof” (TAIHO PHARMACEUTICAL CO., LTD., priority 2015, dated 2019)
Read-outs that look alike come from different tables or passages of the source.

Legend:
Type in all cases: cell-based
[1] = system: AR expression in LNCaP; experiment: Activity of reducing expression level of androgen receptor (Western blotting in LNCaP); conditions: Homo sapiens, read-out: AR expression reducing activity
Protocol: AR positive human prostate cancer cells LNCaP were seeded in a 6 well microplate (BD) at 3.5×10^5/well with RPMI1640 containing 5% FBS (hereinbelow, the medium is referred to as an evaluation medium), and then cultured overnight. […] After culture for 48 hours, the medium was removed and the cells were washed with PBS and added with 0.1 mL of Lysis buffer (M-PER added with Protease Inhibitor Cocktail), followed by keeping at 4° C. for 20 minutes. After cell lysis, the cell solution was centrifuged to recover the supernatant as cell lysate. […] The antibody-reacting band (anti AR receptor) was quantified by LAS Imaging System (FUJIFILM) using Super Signal West Dura Substrate (Thermo Scientific) as a detection reagent.
When the AR expression reducing activity is 50% or more, it is described as “reduced”.

[2] = system: Human prostate cancer cells LNCaP; experiment: Inhibitory activity on androgen-dependent proliferation of prostate cancer cells; conditions: 1 nmol/L DHT, 72 hours, Cell Counting Kit-8, read-out: Proliferation inhibition concentration GI50 value
Protocol: Human prostate cancer cells LNCaP (Non-Patent Literature 5) having […] androgen receptor gene were seeded in a clear bottom 96 well microplate (BD) at 4.0×10^3/well with phenol red free RPMI1640 containing 5% DCC-FBS (hereinbelow, the medium is referred to as an evaluation medium), and then cultured overnight. […] Then, the number of viable cells was measured. The number of viable cells was measured by using Cell Counting Kit-8 (DOJINDO LABORATORIES).

[3] = system: AR positive human prostate cancer cells VCaP; experiment: Agonist activity for AR: cell proliferation rate of VCaP cells; conditions: 5-10000 nmol/L, 72 hours, relative to evaluation medium only, more than 10% = agonist activity
Protocol: Then, the number of viable cells was measured (test group). As a control, the cells were cultured after being added with the evaluation medium only, and the number of viable cells was measured (control group). The number of viable cells was measured by using CellTiter-Glo™ Luminescent Cell Viability Assay (Promega). From the measured number of viable cells, cell proliferation rate with respect to the compound of Examples or the compound of Comparative Examples was calculated based on the number of viable cells measured in the case of using the evaluation medium only. Cell proliferation rate (%)=(Number of viable cells in test group−Number of viable cells in control group)/(Number of viable cells in control group)×100
By considering an error in the number of viable cells measured in the case of using the evaluation medium only, when the cell proliferation rate was more than 10% at any concentration of the 8 concentrations which had been evaluated, it was determined to have an agonist activity for AR.

[4] = target: T1, human androgen receptor (Homo sapiens, UniProt P10275); experiment: Antagonist activity for AR: MMTV-luc reporter transcription in COS-7 cells transfected with human AR, stimulated with DHT
T1 construct: expressed in transfected cells; host or cells: COS-7 cells (ATCC)
T1 sequence (P10275 1-920): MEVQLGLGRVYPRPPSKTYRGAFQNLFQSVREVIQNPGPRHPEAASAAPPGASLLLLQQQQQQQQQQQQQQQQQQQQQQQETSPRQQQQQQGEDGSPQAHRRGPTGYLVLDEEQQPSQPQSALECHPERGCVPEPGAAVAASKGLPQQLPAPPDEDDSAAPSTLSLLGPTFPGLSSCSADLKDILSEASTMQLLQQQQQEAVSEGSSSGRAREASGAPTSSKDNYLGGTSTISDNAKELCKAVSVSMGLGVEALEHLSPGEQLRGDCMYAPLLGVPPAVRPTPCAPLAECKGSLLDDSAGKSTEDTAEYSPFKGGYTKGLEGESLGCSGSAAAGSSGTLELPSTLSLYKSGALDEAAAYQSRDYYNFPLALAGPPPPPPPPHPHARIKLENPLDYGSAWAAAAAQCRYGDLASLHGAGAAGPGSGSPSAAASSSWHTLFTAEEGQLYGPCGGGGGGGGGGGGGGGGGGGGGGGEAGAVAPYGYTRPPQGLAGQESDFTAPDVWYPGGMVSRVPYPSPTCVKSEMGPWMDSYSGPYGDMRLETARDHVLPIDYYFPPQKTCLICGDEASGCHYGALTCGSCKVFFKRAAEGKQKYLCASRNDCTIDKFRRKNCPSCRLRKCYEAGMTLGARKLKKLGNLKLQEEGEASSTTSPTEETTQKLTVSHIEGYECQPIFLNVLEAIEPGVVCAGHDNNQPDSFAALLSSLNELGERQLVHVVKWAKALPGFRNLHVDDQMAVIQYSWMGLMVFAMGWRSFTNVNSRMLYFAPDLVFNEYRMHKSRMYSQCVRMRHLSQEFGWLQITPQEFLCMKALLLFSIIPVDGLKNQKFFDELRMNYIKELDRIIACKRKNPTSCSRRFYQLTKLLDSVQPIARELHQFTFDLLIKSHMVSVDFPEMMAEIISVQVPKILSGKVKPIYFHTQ
Protocol: Antagonist activity for AR was evaluated according to the following method. COS-7 cells (ATCC) were transfected with pMMTV-luc vector (reporter plasmid having, as an androgen response element, […] long terminal repeat) and pEX-hAR vector (human androgen receptor expression vector: which expresses human AR gene under control of CMV promoter) by using Nucleofector (registered trademark) Kit R (Lonza) as a transfection reagent and Amaxa (Lonza). The COS-7 cells obtained after transfection were seeded in a clear bottom 96 well microplate (BD) at 1.5×10^4/well with phenol red free RPMI1640 containing 10% charcoal-treated fetal bovine serum (hereinbelow, DCC-FBS) (hereinbelow, the medium is referred to as an evaluation medium), and then cultured overnight. […] Then, the transcription activity value of the reporter plasmid was measured. The transcription activity was measured by using Bright-Glo™ Luciferase Assay System (Promega).

[5] = COS-7 cells with pMMTV-luc and pEX-hAR, 1 nmol/L DHT, 24 hours, read-out: AR antagonist IC50
[6] = 10000 nmol/L, 48 hours, vs evaluation medium control

| SMILES | inhibition at 10 µM ([1]; 48 h) | GI50 [2] | Cell proliferation rate (%) [3] | IC50 [4] | IC50 [4, 5] | inhibition at 10 µM [1, 6] |
| --- | --- | --- | --- | --- | --- | --- |
| C#CCNC(=O)c1ccc(Nc2ncnc3c2CCN(c2ccc(C#N)c(C(F)(F)F)c2)C3)nn1 [Example 11, 6-((7-(4-cyano-3-(trifluoromethyl)phenyl)-5,6,7,8-tetrahydropyrido[3,4-d]pyrimidin-4-yl)amino)-N-(prop-2-yn-1-yl)pyridazine-3-carboxamide] | > 50% | 950 nM | 4.9% | 25 nM | – | – |
| CC(C)(C)OC(=O)N1CCc2ccc(Nc3ncnc4c3CCN(c3ccc(C#N)c(Cl)c3)C4)cc2C1 [Example 36, tert-Butyl 7-((7-(3-chloro-4-cyanophenyl)-5,6,7,8-tetrahydropyrido[3,4-d]pyrimidin-4-yl)amino)-3,4-dihydroisoquinoline-2(1H)-carboxylate] | > 50% | 150 nM | 4.9% | – | 180 nM | – |
| O=C(NCC(F)(F)F)c1ccc(Nc2ncnc3c2CCN(c2ccc([N+](=O)[O-])c(C(F)(F)F)c2)C3)nn1 [Example 24, 6-((7-(4-Nitro-3-(trifluoromethyl)phenyl)-5,6,7,8-tetrahydropyrido[3,4-d]pyrimidin-4-yl)amino)-N-(2,2,2-trifluoroethyl)pyridazine-3-carboxamide] | – | 790 nM | 7.8% | – | 180 nM | > 50% |
| N#Cc1ccc(N2CCc3c(ncnc3Nc3ccc4c(c3)CNCC4)C2)cc1Cl [Example 37, 2-Chloro-4-(4-((1,2,3,4-tetrahydroisoquinolin-7-yl)amino)-5,6-dihydropyrido[3,4-d]pyrimidin-7(8H)-yl)benzonitrile] | > 50% | 990 nM | 4.6% | 690 nM | – | – |
| COc1ccc(Nc2nc(C)nc3c2CCN(c2ccc(C#N)c(C(F)(F)F)c2)C3)cc1 [Example 48, 4-(4-((4-Methoxyphenyl)amino)-2-methyl-5,6-dihydropyrido[3,4-d]pyrimidin-7(8H)-yl)-2-(trifluoromethyl)benzonitrile] | > 50% | 610 nM | −1.6% | – | 1000 nM | – |
| CC(C)(C)OC(=O)NCCNC(=O)c1ccc(Nc2ncnc3c2CCN(c2ccc(C#N)c(C(F)(F)F)c2)C3)nn1 [Example 8, tert-butyl (2-(6-((7-(4-cyano-3-(trifluoromethyl)phenyl)-5,6,7,8-tetrahydropyrido[3,4-d]pyrimidin-4-yl)amino)pyridazine-3-carboxamido)ethyl)carbamate] | > 50% | 1100 nM | 5.3% | 59 nM | – | – |
| CCNC(=O)c1ccc(Nc2ncnc3c2CCN(c2ccc(C#N)c(Cl)c2)C3)nc1F [Example 1, 6-((7-(3-Chloro-4-cyanophenyl)-5,6,7,8-tetrahydropyrido[3,4-d]pyrimidin-4-yl)amino)-N-ethyl-2-fluoronicotinamide] | > 50% | 83 nM | 9.7% | 2.6 nM | – | – |
| CC(C)(O)c1ccc(Nc2ncnc3c2CCN(c2ccc([N+](=O)[O-])c(Cl)c2)C3)nc1 [Example 13, 2-(6-((7-(3-Chloro-4-nitrophenyl)-5,6,7,8-tetrahydropyrido[3,4-d]pyrimidin-4-yl)amino)pyridin-3-yl)propan-2-ol] | – | 300 nM | 7.3% | – | 32 nM | > 50% |
| N#Cc1ccc(N2CCc3c(ncnc3Nc3ccc(OC(F)(F)F)cc3)C2)cc1C(F)(F)F [Example 27, 4-(4-((4-(trifluoromethoxy)phenyl)amino)-5,6-dihydropyrido[3,4-d]pyrimidin-7(8H)-yl)-2-(trifluoromethyl)benzonitrile] | > 50% | 1000 nM | 3.8% | 1000 nM | – | – |
| CC(C)(O)c1ccc(Nc2ncnc3c2CCN(c2ccc([N+](=O)[O-])c(Br)c2)C3)nc1 [Example 17, 2-(6-((7-(3-bromo-4-nitrophenyl)-5,6,7,8-tetrahydropyrido[3,4-d]pyrimidin-4-yl)amino)pyridin-3-yl)propan-2-ol] | > 50% | 1200 nM | 9.7% | 30 nM | – | – |
| COc1cc(N2CCc3c(ncnc3Nc3ccc(C(C)(C)O)cn3)C2)ccc1C#N [Example 23, 4-(4-((5-(2-Hydroxypropan-2-yl)pyridin-2-yl)amino)-5,6-dihydropyrido[3,4-d]pyrimidin-7(8H)-yl)-2-methoxybenzonitrile] | – | 2600 nM | 2.3% | – | 19 nM | > 50% |
| CC(=O)N1CCN(CCCOc2ccc(Nc3ncnc4c3CCN(c3ccc(C#N)c(Cl)c3)C4)cc2Cl)CC1 [Example 42, 4-(4-((4-(3-(4-Acetylpiperazin-1-yl)propoxy)-3-chlorophenyl)amino)-5,6-dihydropyrido[3,4-d]pyrimidin-7(8H)-yl)-2-chlorobenzonitrile] | > 50% | 1300 nM | 5.1% | 560 nM | – | – |
| CC(C)Oc1cc(N2CCc3c(ncnc3Nc3ccc(C(C)(C)O)cn3)C2)ccc1[N+](=O)[O-] [Example 19, 2-(6-((7-(3-isopropoxy-4-nitrophenyl)-5,6,7,8-tetrahydropyrido[3,4-d]pyrimidin-4-yl)amino)pyridin-3-yl)propan-2-ol] | – | 220 nM | 7.8% | – | 1300 nM | > 50% |
| CCNC(=O)c1ccc(Nc2ncnc3c2CCN(c2ccc(C#N)c(C(F)(F)F)c2)C3)nc1 [Example 5, 6-((7-(4-cyano-3-(trifluoromethyl)phenyl)-5,6,7,8-tetrahydropyrido[3,4-d]pyrimidin-4-yl)amino)-N-ethylnicotinamide] | > 50% | 120 nM | −1.9% | 100 nM | – | – |
| COc1ccc(Nc2nc(C#N)nc3c2CCN(c2ccc(C#N)c(C(F)(F)F)c2)C3)cc1 [Example 47, 7-(4-Cyano-3-(trifluoromethyl)phenyl)-4-((4-methoxyphenyl)amino)-5,6,7,8-tetrahydropyrido[3,4-d]pyrimidine-2-carbonitrile] | > 50% | 450 nM | −1.7% | 700 nM | – | – |
